Legend:
[1] = system: SOX2; assay: Western blotting of SOX2 expression after ATCA treatment; format: cell-based; conditions: FIG. 4
[2] = system: polyribosomes; assay: Polysome profiling (cell translation initiation efficiency); format: cell-based; conditions: 1 mg/mL, FIG. 5
Experimental: Polysome profiling: cells were plated in a 75 T flask with 2 million cells per flask and allowed to adhere for 24 h, and the ACTA was added to the experimental group to make a concentration of the working solution at 1 mg/mL. The control group was replaced with a new medium. Samples were collected after 24 h and 48 h of ATCA treatment. The medium was aspirated, the samples were washed twice with PBS, and 2 mL of Lysis Buffer (RB Buffer, 1% Ttiton X-100, and 10 μg/μL cycloheximide) was added to allow lysis for 30 min on ice, and a resulting lysate was pipetted into an RNase-free EP tube. […] After centrifugation for 4 h and 10 min at 4° C. and 25,400 rpm, high-performance liquid chromatography (HPLC) was conducted to allow relative quantitative analysis of polyribosomes, monoribosomes, and large and small subunits of ribosomes.

[3] = system: lung adenocarcinoma cells H1299; assay: Apoptosis by Annexin V and propidium iodide staining, flow cytometry; format: cell-based; conditions: 0.5 mg/mL ATCA, P<0.05, n=4
Excerpt: (§1) In the experiment of ATCA inducing apoptosis in lung cancer cells, Annexin V and propidium iodide were used to stain the cancer cells and then detected by flow cytometry.

[4] = system: lung adenocarcinoma cells A549; assay: as above; format: cell-based; conditions: 0.5 mg/mL ATCA, P<0.05, n=4
Excerpt: as §1

[5] = target: T1, EIF2S1 (Homo sapiens, UniProt P05198); assay: CESTA-WB (cellular thermal shift assay-Western blotting), H1299 cell lysate; format: binding; conditions: ATCA 10 nM to 10 mM, 55° C. for 3 min, FIG. 1
T1 construct: endogenous in cells; host or cells: H1299
Experimental: CESTA-WB experiment: H1299 cells were plated and cultured in a 15 cm dish, and when a cell density reached about 90% to 100%, the medium was aspirated; the cells were washed twice with PBS, and 2 mL of Lysis Buffer (RB Buffer, 10% N-Dodecyl-β-D-maltoside, and 1× protease inhibitor) was added to each dish and placed flatly on ice to allow lysis for 30 min, and a cell lysate was collected and centrifuged at 17,000 g, 4° C. for 10 min; a resulting supernatant was quantified using a BCA kit. 45 μL of a whole protein was added in a PCR tube, ATCA was added to final concentrations of 10 mM, 1 mM, 100 μM, 10 μM, 1 μM, 100 nM, and 10 nM, respectively, and allowed to stand at 25° C. for 30 min to allow the ATCA to fully interact with the whole protein; while another two tubes without ATCA were taken as controls. The experimental group was treated at 55° C. for 3 min, while one tube in the control group was treated at 37° C. for 3 min, and the other tube was treated at 50° C. for 3 min; centrifugation was conducted at 17,000×g for 10 min at 4° C. to remove denatured proteins. The supernatant was transferred into a new PCR tube, and 5 μg of the supernatant was added into 5×SDS Loading Buffer to allow denaturation in a 100° C. water bath; the Western Blotting was conducted to quantify EEF2, EIF2S1, B-actin, and Vinculin proteins.
Western Blotting experiment: the sample and molecular weight standard of pre-stained protein were loaded onto an SDS-PAGE gel (10 cmx 10 cm) to allow electrophoresis at 100 V for 40 min. The proteins in SDS-PAGE were transferred to nitrocellulose membrane at 100 V, 230 mA within 1 h. After transfer, the nitrocellulose membrane was washed with 25 mL of TBS for 5 min at room temperature. The nitrocellulose membrane was placed in 25 mL of blocking buffer (TBST, 5% skim milk) and incubated at room temperature for 1 h. The membrane was washed three times with 15 mL TBST, 5 min each. […]

T1 sequence (P05198 whole entry): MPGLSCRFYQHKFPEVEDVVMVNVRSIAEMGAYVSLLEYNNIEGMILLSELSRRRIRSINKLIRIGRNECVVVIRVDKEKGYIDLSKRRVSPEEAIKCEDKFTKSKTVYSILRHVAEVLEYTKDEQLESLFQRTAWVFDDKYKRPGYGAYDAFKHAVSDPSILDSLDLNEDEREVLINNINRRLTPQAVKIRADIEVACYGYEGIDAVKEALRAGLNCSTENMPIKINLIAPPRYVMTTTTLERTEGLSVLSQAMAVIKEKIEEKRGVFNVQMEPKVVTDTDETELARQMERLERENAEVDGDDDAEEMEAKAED

O=C(O)C1=CC(=C(c2ccc(O)c(C(=O)O)c2)c2ccc(O)c(C(=O)O)c2)C=CC1=O [ATCA, aurintricarboxylic acid]
SOX2 expression [1]: downregulation | polysome distribution curve ([2]; 24 h after adding the drug): did not change much | polyribosome fraction ([2]; 48 h after adding the drug): significantly reduced | translation elongation [2]: did not affect translation elongation | apoptosis of H1299 cells [3]: significant apoptosis | apoptosis of A549 cells [4]: significant apoptosis | binding to target protein EIF2S1 [5]: binds

Reference: patent US20250222011A1, “DRUG TARGET FOR INHIBITING TUMOR, USE, AND ORAL DRUG” (CHI BIOTECH CO., LTD., priority 2024, published 2025)
